Reference: paper PMC4791643, “Reconstruction of diaminopimelic acid biosynthesis allows characterisation of Mycobacterium tuberculosis N-succinyl-L,L-diaminopimelic acid desuccinylase” (Scientific Reports, 2016)

Target: T1, MtDapE (Mycobacterium tuberculosis, UniProt P9WHS9)
T1 construct: gene dapE
Assay: inhibition in coupled assay, preincubated with inhibitor, NADPH at […] nm
Type: biochemical
Details: for inhibition at 1000 µM: read-out: % inhibition at 1 mM

T1 sequence (P9WHS9 whole entry, looked up): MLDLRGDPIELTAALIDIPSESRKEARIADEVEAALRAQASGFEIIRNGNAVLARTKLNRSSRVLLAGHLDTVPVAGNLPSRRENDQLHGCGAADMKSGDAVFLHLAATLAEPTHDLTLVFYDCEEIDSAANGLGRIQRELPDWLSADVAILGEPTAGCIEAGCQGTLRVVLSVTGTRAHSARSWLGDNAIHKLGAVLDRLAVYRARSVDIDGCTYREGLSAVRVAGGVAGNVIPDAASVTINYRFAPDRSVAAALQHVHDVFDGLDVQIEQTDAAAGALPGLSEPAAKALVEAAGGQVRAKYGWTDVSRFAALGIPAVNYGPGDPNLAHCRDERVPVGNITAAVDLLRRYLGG

OB(O)c1cccs1 [2-thiopheneboronic acid]
inhibition at 10000 µM (read-out: % inhibition at 10 mM): 22.3%

C[C@H](CS)C(=O)N1CCC[C@H]1C(=O)O [L-captopril]
inhibition at 1000 µM: 23.3%

CC(C)(S)[C@H](N)C(=O)O [L-penicillamine]
inhibition at 1000 µM: 79.4%
